# Patent publication US20210395721A1, “METHODS TO IMPROVE POTENCY OF ELECTROPORATION” (Codiak BioSciences, Inc., priority 2018, published 2021)
# Tests used:
# [1] = Anion exchange chromatography (AEX) of siRNA before and after electroporation; format: physicochemical; conditions: for effect of excipient on AEX profile of XD-08318 after electroporation: 5 ms per pulse
# Method: Anion exchange chromatography (AEX) was carried out on an Agilent 1100 HPLC using a […] PA200 column (Thermo Scientific). The column was equilibrated in 50 mM Tris pH 7.4, and 20 ng of each siRNA sample was prepared in a 100 μl HPLC vial for injection. The sample was injected and subjected to a gradient of 50 mM Tris pH 7.4 (mobile phase A) and 50 mM Tris, 1 M NaCl, pH 7.4 (mobile phase B) according to Tables 1 and 2, below. Electroporation is a common method for introducing nucleic acids into cells and other lipid structures such as exosomes. As an analytical method, siRNAs were analyzed by anion exchange chromatography (AEX), as described above, before and after electroporation. […] XD-08318 is a modified siRNA that contains a 5' terminal deoxyribose residue on the antisense strand, a combination of natural ribose and synthetic 2'-O-methyl ribose residues, and phosphorothioate linkages at the 3' ends of each strand (FIG. 2). Synthetic RNA XD-08318 was electroporated in the presence of several free radical scavengers and reducing agents as excipients.
# KRAS G12D transcript = KRAS G12D transcript knockdown in Panc-1 cells; format: cell-based, human; conditions: FIG. 14, samples #9, #10 vs #4-8
# Method: XD-08318 was loaded into exosomes by electroporation in the presence or absence of free radical scavengers. As a control, XD-08318 was transfected into the human pancreatic cancer cell line Panc-1, which is heterozygous for the G12D mutant transcript of KRAS. […] As controls, in the absence of any transfection reagent, Panc-1 cells were incubated with a mixture of the siRNA and exosomes without electroporation (mix), siRNA only, exosomes alone (EV only), or in the presence of siRNA and exosomes that were electroporated individually (si EP+EV EP Mix). […] Next, XD-08318 was loaded into exosomes by electroporation at pulse code 42 (sample 4) and incubated with cells, resulting in a modest ˜30% repression of the target transcript.
# [2] = MaxCyte strong pulse code 66 (high field strength, high frequency)
"effect of excipient on AEX profile of XD-08318 after electroporation ([1]; Gene Pulser XCell (Bio-Rad), 800 V, 2 pulses)","effect of excipient on AEX spectral shift of XD-08318 after electroporation [1, 2]","effect of excipient on AEX profile of XD-08318 after electroporation ([1]; Neon Transfection System, 2000 V, 8 pulses)","effect of excipient on AEX spectral shift of XD-08318 after electroporation ([1]; MaxCyte intermediate pulse code 63 (high field strength, low frequency))",Structure (SMILES),"knock-down by modified siRNA electroporated into exosomes in presence of the scavenger, compared to absence of free radical scavengers (KRAS G12D transcript)"
prevent a change in the AEX profile,prevented the spectral shift,prevent a change in the AEX profile,,N[C@@H](CCC(=O)N[C@@H](CS)C(=O)NCC(=O)O)C(=O)O [Glutathione],
,prevented the spectral shift,,,CSCC[C@H](N)C(=O)O [L-Methionine],increased knock-down
,prevented the spectral shift,,prevented the spectral shift,N[C@@H](CS)C(=O)O [L-cysteine],
